Results as given in DBAASP.
Values after ≈ are worked out from the molar mass of the structure shown. Blank lines part the entries; values can stand above or below the compound they belong to.

Columns and labels:
Assay in all cases: ≥ marks a high value that may be exact or a test limit, other limits are often not marked, values filed in µg/mL are converted to µM
[1] = test system: Escherichia coli ATCC 25922
[2] = test system: Pseudomonas aeruginosa ATCC 27853
[3] = test system: Staphylococcus aureus ATCC 29313
[4] = test system: Xanthomonas axonopodis pv. glycines ISBF 327
[5] = test system: Erwinia amylovora PMV 6076
[6] = test system: Pseudomonas syringae pv. syringae EPS 94
[7] = test system: Xanthomonas campestris pv. Vesicatoria 2133-2
[8] = test system: Candida albicans ATCC 2002
[9] = test system: Candida albicans
[10] = test system: Enterobacter cloacae ATCC 13047
[11] = test system: Enterobacter cloacae
[12] = test system: Enterococcus faecalis ATCC 29212
[13] = test system: Escherichia coli ML-35p
[14] = test system: Escherichia coli
[15] = test system: Haemophilus influenzae ATCC 49247
[16] = test system: Haemophilus influenzae ATCC 49766
[17] = test system: Klebsiella aerogenes
[18] = test system: Klebsiella pneumoniae ATCC 13883
[19] = test system: Klebsiella pneumoniae ATCC 700603
[20] = test system: Pseudomonas aeruginosa 447
[21] = test system: Pseudomonas aeruginosa PAO1
[22] = test system: Pseudomonas aeruginosa
[23] = test system: Staphylococcus aureus ATCC 25923
[24] = test system: Staphylococcus aureus ATCC 43300
[25] = test system: Staphylococcus aureus
[26] = test system: Staphylococcus aureus ATCC 33591
[27] = test system: Staphylococcus epidermidis ATCC 35984
[28] = test system: Aspergillus fumigatus
[29] = test system: Aspergillus niger
[30] = test system: Bacillus cereus PTCC 1435
[31] = test system: Bacillus subtilis PTCC 4533
[32] = test system: Escherichia coli PTCC 2433
[33] = test system: Klebsiella pneumoniae PTCC 4231
[34] = test system: Leuconostoc mesenteroides PTCC 1445
[35] = test system: Pseudomonas aeruginosa PTCC 2834

MIC [1]: 10 µM (≈ 29.8 µg/mL)
MIC [2]: 20 µM (≈ 59.7 µg/mL)
MIC [4]: 1 µM (≈ 2.98 µg/mL)
SMILES: CC[C@H](C)[C@H](NC(=O)[C@H](C)NC(=O)[C@H](C)NC(=O)[C@H](C)NC(=O)[C@H](C)NC(=O)[C@H](C)NC(=O)[C@H](C)NC(=O)[C@H](C)N)C(=O)N[C@@H](CCCCN)C(=O)N[C@@H](CCSC)C(=O)N[C@@H](CC(C)C)C(=O)N[C@@H](CCSC)C(=O)N[C@@H](CC(=O)O)C(=O)N[C@@H](CC(C)C)C(=O)N[C@H](C(=O)N[C@@H](CC(N)=O)C(=O)N[C@@H](CCC(=O)O)C(=O)N[C@@H](CCCN=C(N)N)C(=O)N[C@H](C(=O)N[C@@H](CCSC)C(=O)N[C@@H](C)C(=O)N[C@@H](CC(C)C)C(=O)N[C@@H](CC(N)=O)C(=O)N[C@@H](CCCCN)C(=O)N[C@@H](CCCCN)C(=O)N[C@@H](C)C(=O)N[C@@H](CCCCN)C(=O)N[C@@H](CCCCN)C(N)=O)[C@@H](C)CC)C(C)C [AAAAAAAIKMLMDLVNERIMALNKKAKK]
MIC [3]: 20 µM (≈ 59.7 µg/mL)

MIC [5]: 14.1 µM (≈ 45 µg/mL)
MIC [6]: 8.66 µM (≈ 27.5 µg/mL)
MIC [7]: 14.1 µM (≈ 45 µg/mL)
SMILES: CC[C@H](C)[C@H](NC(=O)[C@H](CCCCN)NC(=O)[C@H](CCCCN)NC(=O)[C@H](Cc1ccccc1)NC(=O)[C@H](CC(C)C)NC(=O)[C@H](CCCCN)NC(=O)[C@H](CCCCN)NC(=O)[C@H](C)NC(=O)[C@@H]1CCCN1C(=O)CNC(=O)[C@H](C)NC(=O)[C@H](CC(C)C)NC(=O)[C@H](Cc1ccc(O)cc1)NC(=O)[C@H](CCCCN)NC(=O)[C@H](CC(C)C)NC(=O)[C@@H](NC(=O)[C@H](CCCCN)NC(=O)[C@H](CCCCN)NC(=O)[C@H](Cc1ccccc1)NC(=O)[C@H](CC(C)C)NC(=O)[C@H](CCCCN)NC(=O)[C@H](CCCCN)NC(=O)CN)[C@@H](C)CC)C(=O)N[C@@H](CC(C)C)C(=O)N[C@@H](CCCCN)C(=O)N[C@@H](Cc1ccc(O)cc1)C(=O)N[C@@H](CC(C)C)C(=O)O [GKKLFKKILKYLAGPAKKLFKKILKYL]

SMILES: CC[C@H](C)[C@H](NC(=O)[C@@H](NC(=O)[C@H](CCCN=C(N)N)NC(=O)[C@@H]1CCCN1C(=O)[C@H](CCCCN)NC(=O)[C@H](CCCCN)NC(=O)[C@H](Cc1ccccc1)NC(=O)[C@H](Cc1ccccc1)NC(=O)[C@H](CCCCN)NC(=O)[C@H](CCCCN)NC(=O)[C@H](C)NC(=O)[C@H](CCCN=C(N)N)NC(=O)[C@H](CCCCN)NC(=O)[C@H](CCCCN)NC(=O)[C@@H](NC(=O)[C@H](CO)NC(=O)[C@H](CC(N)=O)NC(=O)[C@H](CCCCN)NC(=O)[C@H](CC(C)C)NC(=O)[C@H](CCCCN)NC(=O)[C@H](CCCCN)NC(=O)[C@H](Cc1ccccc1)NC(=O)[C@H](Cc1ccccc1)NC(=O)[C@@H](N)CCCCN)C(C)C)C(C)C)C(=O)NCC(=O)N[C@H](C(=O)N[C@@H](CO)C(=O)N[C@H](C(=O)N1CCC[C@H]1C(=O)N[C@@H](Cc1ccccc1)C(=O)O)[C@@H](C)CC)C(C)C [KFFKKLKNSVKKRAKKFFKKPRVIGVSIPF]
MIC [8]: ≥ 55.6 µM
MIC [9]: > 55.6 µM
MIC [10]: 6.95 µM (≈ 25 µg/mL)
MIC [11]: 0.869 µM (≈ 3.13 µg/mL)
MIC [12]: 6.95 µM (≈ 25 µg/mL)
MIC [1]: 1.74 µM (≈ 6.25 µg/mL)
MIC [13]: 0.869 µM (≈ 3.13 µg/mL)
MIC [14]: 1.74 µM (≈ 6.25 µg/mL)
MIC [15]: 0.869 µM (≈ 3.13 µg/mL)
MIC [16]: 0.869 µM (≈ 3.13 µg/mL)
MIC [17]: 1.74 µM (≈ 6.25 µg/mL)
MIC [18]: 1.74 µM (≈ 6.25 µg/mL)
MIC [19]: 0.869 µM (≈ 3.13 µg/mL)
MIC [20]: 1.74 µM (≈ 6.25 µg/mL)
MIC [2]: 1.74 µM (≈ 6.25 µg/mL)
MIC [21]: 1.74 µM (≈ 6.25 µg/mL)
MIC [22]: 3.48 µM (≈ 12.5 µg/mL)
MIC [23]: 0.869 µM (≈ 3.13 µg/mL)
MIC [24]: 1.74 µM (≈ 6.25 µg/mL)
MIC [25]: 1.74 µM (≈ 6.25 µg/mL)

MIC [2]: 16.1 µM (≈ 22.6 µg/mL)
MIC [23]: 182 µM (≈ 256 µg/mL)
MIC [26]: ≥ 182 µM
MIC [27]: ≥ 64.3 µM
SMILES: CC[C@H](C)[C@H](NC(=O)[C@H](CCCCN)NC(=O)[C@@H](NC(=O)[C@H](Cc1ccccc1)NC(=O)[C@H](C)NC(=O)[C@H](CCCCN)NC(=O)CNC(=O)[C@H](Cc1ccccc1)NC(=O)[C@H](CCCCN)NC(=O)[C@@H](N)CCCCN)C(C)C)C(=O)N[C@@H](CC(C)C)C(=O)N[C@@H](CCCCN)C(N)=O [KKFGKAFVKILK]

MIC [28]: 11.9 µM (≈ 19.3 µg/mL)
MIC [29]: 15.2 µM (≈ 24.6 µg/mL)
MIC [30]: 9.33 µM (≈ 15.1 µg/mL)
MIC [31]: 10.9 µM (≈ 17.6 µg/mL)
MIC [9]: 12.6 µM (≈ 20.4 µg/mL)
MIC [32]: 17.5 µM (≈ 28.3 µg/mL)
MIC [33]: 16.5 µM (≈ 26.7 µg/mL)
MIC [34]: 12.2 µM (≈ 19.8 µg/mL)
MIC [35]: 15 µM (≈ 24.2 µg/mL)
SMILES: CC[C@H](C)[C@H](NC(=O)[C@H](CO)NC(=O)[C@H](CCCCN)NC(=O)[C@H](CC(C)C)NC(=O)[C@H](CCCN=C(N)N)NC(=O)[C@@H](N)CC(C)C)C(=O)N[C@H](C(=O)N[C@@H](CO)C(=O)N[C@@H](Cc1ccc(O)cc1)C(=O)N[C@@H](C)C(=O)N[C@@H](CCCCN)C(=O)N[C@@H](CCCCN)C(=O)N[C@H](C(=O)N[C@@H](CC(C)C)C(=O)O)C(C)C)C(C)C [LRLKSIVSYAKKVL]
